{"source": "the SangsterLogP compilation", "experiment": "method code SF-AS, from DOI: 10.1002/chin.198834177", "conditions": "pH 5.6"}
{"compound": "CC(C)(C(N)=O)n1nnc2ccccc21", "values": [{"measurement": "logD", "value": 0.76}]}
{"compound": "CCCCC(C(N)=O)n1nc2ccccc2n1", "note": "(stereo not given)", "values": [{"measurement": "logD", "value": 2.28}]}
{"compound": "CC(CCC(N)=O)n1nnc2ccccc21", "note": "(stereo not given)", "values": [{"measurement": "logD", "value": 1.15}]}
{"compound": "CCOC(=O)C(C)n1nnc2ccccc21", "note": "(stereo not given)", "values": [{"measurement": "logD", "value": 1.87}]}
{"compound": "CCCCC(C(N)=O)n1nnc2ccccc21", "note": "(stereo not given)", "values": [{"measurement": "logD", "value": 1.88}]}
{"compound": "CC(C(N)=O)n1nnc2ccccc21", "note": "(stereo not given)", "values": [{"measurement": "logD", "value": 0.35}]}
{"compound": "CCOC(=O)C(CC)n1nnc2ccccc21", "note": "(stereo not given)", "values": [{"measurement": "logD", "value": 2.34}]}
{"compound": "CCOCC(=O)CCC(C)n1nnc2ccccc21", "note": "(stereo not given)", "values": [{"measurement": "logD", "value": 2.64}]}
{"compound": "CCOC(=O)CC(C)n1nnc2ccccc21", "note": "(stereo not given)", "values": [{"measurement": "logD", "value": 2.27}]}
{"compound": "CC(CC(N)=O)n1nc2ccccc2n1", "note": "(stereo not given)", "values": [{"measurement": "logD", "value": 1}]}
{"compound": "CC(CCC(N)=O)n1nc2ccccc2n1", "note": "(stereo not given)", "values": [{"measurement": "logD", "value": 1.35}]}
{"compound": "CCOC(=O)CCC(C)n1nc2ccccc2n1", "note": "(stereo not given)", "values": [{"measurement": "logD", "value": 3.05}]}
{"compound": "CC(C(N)=O)n1nc2ccccc2n1", "note": "(stereo not given)", "values": [{"measurement": "logD", "value": 0.86}]}
{"compound": "CCOC(=O)C(C)n1nc2ccccc2n1", "note": "(stereo not given)", "values": [{"measurement": "logD", "value": 2.38}]}
{"compound": "CCCCC(C(=O)OCC)n1nnc2ccccc21", "note": "(stereo not given)", "values": [{"measurement": "logD", "value": 3.32}]}
{"compound": "CCCCC(C(=O)OCC)n1nc2ccccc2n1", "note": "(stereo not given)", "values": [{"measurement": "logD", "value": 3.88}]}
{"compound": "CCC(C(N)=O)n1nc2ccccc2n1", "note": "(stereo not given)", "values": [{"measurement": "logD", "value": 1.25}]}
{"compound": "CCOC(=O)C(CC)n1nc2ccccc2n1", "note": "(stereo not given)", "values": [{"measurement": "logD", "value": 2.88}]}
{"compound": "CCCC(C(=O)OCC)n1nnc2ccccc21", "note": "(stereo not given)", "values": [{"measurement": "logD", "value": 2.82}]}
{"compound": "CC(CC(N)=O)n1nnc2ccccc21", "note": "(stereo not given)", "values": [{"measurement": "logD", "value": 0.75}]}
{"compound": "CCOC(=O)C(C)(C)n1nc2ccccc2n1", "values": [{"measurement": "logD", "value": 2.98}]}
{"compound": "CCCC(C(N)=O)n1nnc2ccccc21", "note": "(stereo not given)", "values": [{"measurement": "logD", "value": 1.38}]}
{"compound": "CCOC(=O)CC(C)n1nc2ccccc2n1", "note": "(stereo not given)", "values": [{"measurement": "logD", "value": 2.7}]}
{"compound": "CCOC(=O)C(C)(C)n1nnc2ccccc21", "values": [{"measurement": "logD", "value": 2.6}]}
{"compound": "CC(C)(C(N)=O)n1nc2ccccc2n1", "values": [{"measurement": "logD", "value": 1.16}]}
{"compound": "CCCC(C(N)=O)n1nc2ccccc2n1", "note": "(stereo not given)", "values": [{"measurement": "logD", "value": 1.75}]}
{"compound": "c1ccc2c(c1)nnn2C1CCCCC1", "values": [{"measurement": "logD", "value": 3.11}]}
{"compound": "CCCC(C(=O)OCC)n1nc2ccccc2n1", "note": "(stereo not given)", "values": [{"measurement": "logD", "value": 3.38}]}
{"compound": "c1ccc2nn(C3CCCCC3)nc2c1", "values": [{"measurement": "logD", "value": 3.63}]}
{"compound": "CCC(C(N)=O)n1nnc2ccccc21", "note": "(stereo not given)", "values": [{"measurement": "logD", "value": 0.88}]}
